Data reported in patent US20240424019A1, “SHP1 MODIFIED DENDRITIC CELLS AND EXTRACELLULAR VESICLES DERIVED THEREFROM AND ASSOCIATED METHODS” (BOARD OF REGENTS, THE UNIVERSITY OF TEXAS SYSTEM, priority 2021, published 2024).

Tests used:
[1] = test system: human MoDCs; experiment: DC activation markers on human MoDCs by flow cytometry; type: cell-based
Description: Human leukocyte concentrate (buffy coat) was collected from healthy blood donor volunteers by MD Anderson Blood Donor Center. Written informed consent was obtained from all participating blood donors and the use of anonymized leftover specimens for scientific purposes was approved by the Ethics Committee of the MD Anderson Cancer Center. For the generation of monocyte-derived dendritic cells (MoDCs), peripheral blood of healthy individuals was applied to a Ficoll gradient (BD), and mononuclear cells were freshly isolated and cultured in the dish in a humidified incubator for 1 hour to let monocytes adhere. After removing the medium with non-adherent cells, the adherent monocytes were collected through vigorous pipetting. […]
We assessed the expression of co-stimulatory molecules on human MoDCs treated with indicated dietary components and nutritional supplements including VitE (50 μg/ml). […] The mean fluorescence intensity (MFI) of each molecule was normalized to the MFI of the vehicle-treated group measured by flow cytometry. We then quantitated DC activation markers CD40, CD86, and HLA-DR on human MoDCs treated with vehicle or VitE (50 μg/ml) for 48 h in the presence of LPS (100 ng/ml), as calculated by relative mean fluorescence intensity (MFI) compared to controls.

[2] = target: SHP1 immunoprecipitated from LPS-activated DC2.4 cells (UniProt P29351); experiment: SHP1 phosphatase assay (EnzChek tyrosine phosphatase kit), dose-response; type: biochemical, mouse; details: SHP1 from LPS (100 ng/ml)-activated DC2.4 cells; read-out: inhibitory tyrosine phosphatase activity IC50
Description: FIG. 3A: […] FIG. 3B: t-SNEs by CyTOF and quantification comparing the intensity of […]-SHP1 in TADCs from the vehicle-or VitE-treated EMT6 tumors at day 15 post-implantation. FIG. 3C: Top, SHP1 knockdown in BMDCs was effective. Bottom, CFSE-dilution analysis of OT-1 T cells co-cultured with OVA protein-pulsed BMDCs (ratio 10:1) with knockdown of SHP1 by […]6 versus siCtrl (n=3). Right, quantification of OT-1 T-cell numbers under the indicated condition. FIG. 3D: The binding of VitE to purified SHP1 is analyzed by microscale thermophoresis (MST) binding assay. […] FIG. 3E: Relative tyrosine phosphatase activity of SHP1 immunoprecipitated from LPS (100 ng/ml)-activated DC2.4 cells in the presence of indicated doses of VitE (mean of triplicates). FIG. 3F: SHP1 tyrosine phosphatase activity in LPS (100 ng/ml)-activated BMDCs (n=6) treated with vehicle-or VitE (50 μg/ml). Error bars, s.e.m. ns, no significant. *P<0.05, **P<0.01. ***P<0.001, ****P<0.0001. We assessed the phosphatase activity of SHP1 by using the RediPlate 96 EnzChek Tyrosine Phosphatase Assay Kit (ThermoFisher). […] We placed beads into RediPlate wells and incubated them for 30 min at 25° C. before reading them for fluorescence. […] The inhibitor dose-response curves were analyzed using normalized IC50 regression curve fitting with control-based normalization.

## Cc1c(C)c2c(c(C)c1O)CC[C@@](C)(CCC[C@H](C)CCC[C@H](C)CCCC(C)C)O2 [VitE, D-α-Tocopherol]
[1]; VitE 50 μg/ml 48 h, LPS 100 ng/ml
  expression of DC activation markers (relative MFI): significantly increased expression of DC activation markers CD40, CD86, HLA-DR
[1]; VitE 50 μg/ml vs VitC, VitD, VitB, VitB2, VitB12, DHA, 48 h then LPS 24 h
  DC activation compared with other common nutritional supplements: most effectively activated DCs
[2]
  IC50: 50 to 200 µM
